In patent US20260274838A1 (PURDUE RESEARCH FOUNDATION, priority 2023, published 2026):
Entries after “also recorded” stand apart in the source; their conditions may differ.

Assays:
[1] = molecular target: T1, hSTING (Homo sapiens, UniProt Q86WV6); assay: STING based fluorescence polarization assay (F-c-di-GMP probe displacement); assay type: binding; conditions: 20 μM compound, 50 nM probe, 10 μM STING, 5 minutes; compared to HSD1077
T1 construct: SUMO; made in house; host or cells: E. coli Rosetta 2 (pLysS)
Method: As a preliminary screen, 20 μM of compounds and 50 nM of the probe were incubated with 10 μM of STING for 5 minutes prior to evaluation of fluorescence anisotropy.
50 nM of 2′-Fluo-AHC-c-diGMP (Biolog) was incubated with 10 μM hSTING and 20 μM of screening compounds in dimethyl sulfoxide (DMSO) for 5 minutes in 1× Phosphate buffered saline at room temperature. […] Anisotropy was normalized via equating measurements with 0 μM hSTING to zero. […] Anisotropy was converted to a fraction bound by F-c-di-GMP using the following equation: […]
wherein r refers to the anisotropy value at 10 μM hSTING concentration upon compound addition, rfree refers to the anisotropy value of unbound fluorophore, and Q refers to the ratio of fluorescence intensities between bound and free fluorophore.

[2] = tested on: RAW ISG Blue macrophages; assay: Interferon-β mRNA levels in RAW cells via qPCR; assay type: cell-based, murine; conditions: pre-treatment 6 hours, then 100 μM cGAMP 3 hours; vs DMSO-treated cells stimulated with cGAMP
Method: FIG. 8B illustrates RAW ISG cells were pre-treated with either compound HSD1077 or compound H-151 as a positive control for 6 hours and subsequently stimulated with 100 μM of cGAMP for 3 hours for induction of Interferon-β. mRNA levels were quantified by RT-PCR. Gene expression was normalized with β-actin. Experiments were performed in two biological replicates. Error bars indicate the error of the mean of two independent experiments.
As a secondary analysis, mRNA levels of murine Interferon-β were also quantified via quantitative PCR (qPCR), upon cGAMP stimulation on RAW macrophages with or without compound HSD1077 pre-treatment.
1×10^6 cells were seeded in 6 well plates and incubated for 24 hours to allow for adherence. […] Cells were subsequently harvested, and RNA extraction was performed via the use of TRIzol reagent (Thermo-fisher). 1 μg of RNA harvested from each sample was used for cDNA synthesis using random hexamers, dNTPs, and superscript II reverse transcriptase (Thermo-fisher). […] The forward and reverse primers for the relative quantification of Interferon-β and β-actin were used as reported in Wiser C, Science Reports, 2020, 10, 1-11 and Wang M, ACS Chemical Biology, 2021, 16, 1663-1670, which are hereby specifically incorporated by reference for its teachings regarding the same.

[3] = tested on: RAW ISG Blue cells; assay: Detection of IRF activation in RAW ISG Blue reporter cells (SEAP, QUANTI-Blue); assay type: cell-based, murine
Excerpt: To understand possible modulatory effects of compound HSD1077 on the cGAS-STING axis, the quantification of type 1 interferon expression in-cellulo upon compound HSD1077 treatment, investigated via a commercially available murine macrophage cell line RAW ISG Blue, which express secreted embryonic alkaline phosphatase (SEAP) under the control of an interferon-stimulated gene 54 (ISG54), inducible promoter. Upon the stimulation of pathways, such as cGAS-STING, which activate type 1 interferon production, SEAP would be expressed and can be quantified using a chromogenic detection substrate Quantiblue™. […] Excitedly, concentrations as low as 20 nM caused a noticeable decrease in interferon expression (FIG. 8).
After which, media from each respective well was collected for estimation of IRF activation via SEAP colorimetric assay via QUANTI-blue reagent (Invivogen) as per manufacturer protocols, using a clear 96 well flat bottom plate. 20 μL of the media obtained in each individual well was incubated with 180 μL of QUANTI-Blue™ Solution for 6 hours at 37° C. Absorbance (630 nm) of each well was quantified via Biotek Cytation 5 multi-mode reader.

[4] = tested on: THP-1 dual cells; assay: Detection of IRF activation in THP-1 dual reporter cells (Lucia luciferase, QUANTI-Luc), cGAMP stimulation; conditions: then 2'-3' cGAMP 24 hours
Method: Using THP-1 dual cell lines (Invivogen) featuring a luciferase gene under the control of an ISG54 inducible promoter, relative quantifications of type 1 interferon expression could be achieved through luciferase detection upon cGAS-STING pathway induction.
1×10^5 cells were seeded in 96 well plates and incubated for 24 hours. After which, cells were pre-treated with the drug compound for 1 hour, followed by 100 μM of 2′-3′ cGAMP for induction of the cGAS-STING pathway, and incubated for 24 hours. After which, cell suspension from each respective well was collected and for relative quantification of IRF activation via Lucia luciferase based luminescent assay via QUANTI-Luc™ reagent (Invivogen). 10 μL of the cell suspension obtained in each individual well was added to 50 μL of QUANTI-Luc™ Solution. […] Experiments were performed in biological triplicates, with data reported as the mean and standard deviation of 3 data points.

[5] = tested on: Raw ISG cells; assay: Western blotting of p-STING and p-IRF3 in Raw ISG cells; assay type: cell-based, murine; conditions: 5 μM for 4 hours, then 100 μM cGAMP 3 hours; vs DMSO+cGAMP

T1 sequence (Q86WV6 whole entry H232R): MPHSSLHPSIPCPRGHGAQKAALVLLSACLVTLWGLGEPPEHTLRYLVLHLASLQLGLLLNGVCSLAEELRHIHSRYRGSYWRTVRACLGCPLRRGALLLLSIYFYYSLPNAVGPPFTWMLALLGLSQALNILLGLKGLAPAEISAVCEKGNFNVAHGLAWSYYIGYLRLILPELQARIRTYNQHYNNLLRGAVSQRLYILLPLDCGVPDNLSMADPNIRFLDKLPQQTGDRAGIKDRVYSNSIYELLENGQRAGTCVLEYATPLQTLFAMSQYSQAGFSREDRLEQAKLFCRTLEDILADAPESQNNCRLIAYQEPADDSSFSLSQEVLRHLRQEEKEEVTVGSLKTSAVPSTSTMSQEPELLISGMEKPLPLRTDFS

Compound	STING binding (fraction of F-c-di-GMP probe bound, Fbound), in words [1]	further results
CCc1cc(-c2cn[nH]c2)nc2ccc3[nH]ncc3c12 [Compound 9, 9-Ethyl-7-(1H-pyrazol-4-yl)-3H-pyrazolo[4,3-f]quinoline]	reduced STING binding	
c1n[nH]cc1-c1nc2ccc3c(c2c2c1CCCC2)OCO3 [Compound 3, 7-(1H-pyrazol-4-yl)-8,9,10,11-tetrahydro-[1,3]dioxolo[4,5-a]phenanthridine]	significant decrease in STING binding	
O=C1c2ccccc2C(=O)N1C1CCc2c(c(-c3cn[nH]c3)nc3ccc4[nH]ncc4c23)C1 (stereo not drawn) [Compound 16, 2-(7-(1H-pyrazol-4-yl)-8,9,10,11-tetrahydro-3H-pyrazolo[4,3-a]phenanthridin-9-yl)isoindoline-1,3-dione]	not well tolerated	
Cn1ncc2c3c4c(c(-c5cn[nH]c5)nc3ccc21)CCCC4 [Compound 7, 3-Methyl-7-(1H-pyrazol-4-yl)-8,9,10,11-tetrahydro-3H-pyrazolo[4,3-a]phenanthridine]	poor STING binder	
COc1cc2nc(-c3cn[nH]c3)c3c(c2cc1OC)CCCC3 [Compound 2, 2,3-Dimethoxy-6-(1H-pyrazol-4-yl)-7,8,9,10-tetrahydrophenanthridine]	significant decrease in STING binding	
c1cc(-c2nc3ccc4[nH]ncc4c3c3c2CCCC3)n[nH]1 [Compound 19, 7-(1H-pyrazol-3-yl)-8,9,10,11-tetrahydro-3H-pyrazolo[4,3-a]phenanthridine]	significant decrease in STING binding	
c1n[nH]cc1-c1nc2ccc3[nH]ncc3c2c2c1CCCC2 [HSD1077, 7-(1H-pyrazol-4-yl)-8,9,10,11-tetrahydro-3H-pyrazolo[4,3-a]phenanthridine]		murine Interferon-β mRNA levels [2]: dose-dependent reduction in murine Interferon-β levels; type 1 interferon production on treatment with compound alone (agonism) ([3]; 24 hours, no cGAMP): did not induce type 1 interferon production; also recorded: non-significant changes in interferon expression levels; type 1 interferon expression after pre-treatment and cGAMP induction ([3]; pre-treatment (1 μM or lower) 2 hours, then 100 μM 2'-3' cGAMP 24 hours): can suppress type-1 interferon expression; also recorded: dose-dependent attenuation in type 1 interferon expression; also recorded: attenuated expression of type 1 interferon in a dose-dependent manner; concentration causing a noticeable decrease in interferon expression ([3]; pre-treatment before cGAMP): ≤ 20 nM; type 1 interferon expression after pre-treatment and cGAMP stimulation [4]: can suppress type-1 interferon expression; also recorded: reduced type 1 interferon expression in a dose-dependent manner; also recorded: attenuated expression of interferon in a dose-dependent manner; phospho-IRF3 level [5]: decreased levels; also recorded: attenuates; phospho-STING level [5]: decreased levels; also recorded: attenuates
(2-fluoro-4-(8,9,10,11-tetrahydro-3H-pyrazolo[4,3-a]phenanthridin-7-yl)phenyl) (4-methylpiperazin-1-yl)methanone [Compound 27]	negatively affected STING binding	
Cn1cc(-c2nc3ccc4[nH]ncc4c3c3c2CCCC3)cn1 [Compound 20, 7-(1-Methyl-1H-pyrazol-4-yl)-8,9,10,11-tetrahydro-3H-pyrazolo[4,3-a]phenanthridine]	reduced binding capabilities	
c1n[nH]cc1-c1nc2ccc3[nH]ncc3c2c2c1CCC2 [Compound 10]	reduced STING binding	
CN1CCN(C(=O)c2ccc(-c3nc4ccc5[nH]ncc5c4c4c3CCCC4)cc2)CC1 [Compound 21, (4-methylpiperazin-1-yl) (4-(8,9,10,11-tetrahydro-3H-pyrazolo[4,3-a]phenanthridin-7-yl)phenyl)methanone]	reduced binding capabilities	
7-(1H-pyrazol-4-yl)-8,9,10,11-tetrahydro-3H-imidazo[4,5-a]phenanthridine [Compound 17]	not well tolerated	

Second part, led by results:

STING binding (fraction of F-c-di-GMP probe bound, Fbound), in words [1]	Compound	further results
reduced binding capabilities	CC(=O)N1CCN(C(=O)c2ccc(-c3nc4ccc5[nH]ncc5c4c4c3CCCC4)cc2)CC1 [Compound 22, 1-(4-(4-(8,9,10,11-tetrahydro-3H-pyrazolo[4,3-a]phenanthridin-7-yl)benzoyl)piperazin-1-yl)ethan-1-one]	
negatively affected STING binding	CN1CCN(C(=O)c2ccc(-c3nc4c(F)cc5[nH]ncc5c4c4c3CCCC4)cc2)CC1 [Compound 26, (4-(5-fluoro-8,9,10,11-tetrahydro-3H-pyrazolo[4,3-a]phenanthridin-7-yl)phenyl) (4-methylpiperazin-1-yl)methanone]	
high probe displacement	CCn1nc(C)cc1C(=O)Nc1nc2cc(C(N)=O)cc(OC)c2n1C/C=C/Cn1c(NC(=O)c2cc(C)nn2CC)nc2cc(C(N)=O)cc(OCCCN3CCOCC3)c21 [DIABZI-3, reference compound]	
negatively impacted STING binding	CN1CCN(C(=O)c2ccc(-c3nc4ccc5[nH]ncc5c4c4c3CCC4)cc2)CC1 [Compound 24, (4-methylpiperazin-1-yl) (4-(3,8,9,10-tetrahydrocyclopenta[c]pyrazolo[4,3-f]quinolin-7-yl)phenyl)methanone]	
generally retained STING binding	CN1CCN(C(=O)c2ccc(-c3nc4ccc5[nH]ncc5c4c4c3CCCC4)c(F)c2)CC1 [Compound 28, (3-fluoro-4-(8,9,10,11-tetrahydro-3H-pyrazolo[4,3-a]phenanthridin-7-yl)phenyl) (4-methylpiperazin-1-yl)methanone]	
negatively impacted STING binding	CN1CCN(C(=O)c2ccc(-c3nc4ccc5[nH]ncc5c4c4c3CCCCC4)cc2)CC1 [Compound 23]	
